Results as given in patent US9675077B2, “Composition comprising antimicrobial metal ions and a quaternary cationic surfactant” (CONVATEC TECHNOLOGIES INC., priority 2011, dated 2017).

Experiments:
[1] = tested on: a range of microorganisms in the biofilm state
bacterial biofilms = experiment: MBEC (Minimum Biofilm Eradication Concentration) assay using the Calgary Biofilm Device; type: cell-based; conditions: for MBEC for the metal ion, Without DDAC: metal ion solution alone, adjusted to approx. pH 5.5; for MBEC for the metal ion, Without DDAC / MBEC for the metal ion, With 0.1% DDAC: lowest concentration at which activity was observed, values approximate; for MBEC for the metal ion, With 0.1% DDAC: metal ion solution in combination with 0.1% DDAC, approx. pH 5.5; for Synergy: metal ion with 0.1% DDAC versus metal ion without DDAC

Row | Compound | EDTA concentration effective in making biofilm microorganisms vulnerable to antimicrobial agents [1] | Effect of EDTA on the synergistic antimicrobial activity of cationic surfactant and metal ion (bacterial biofilms; […] w/w di-sodium EDTA in each test solution) | MBEC for the metal ion, Without DDAC (bacterial biofilms) [ppm] | MBEC for the metal ion, With 0.1% DDAC (bacterial biofilms) | Synergy (bacterial biofilms) | Effectiveness against biofilms in the MBEC model (bacterial biofilms; 0.01% w/w silver, 0.1M acetate buffer, pH 4.7 to 7.7, no surfactant)
1 | O=C(O)CN(CCN(CC(=O)O)CC(=O)O)CC(=O)O [EDTA, ethylenediaminetetra-acetic acid] | 0.25-0.5 % weight by volume | further enhances the synergistic antimicrobial activity | – | – | – | –
2 | O=[N+]([O-])[O-].O=[N+]([O-])[O-].O=[N+]([O-])[O-].[Ga+3] [Gallium, gallium (III) nitrate] | – | – | >1000 | ≦0.24 ppm | +ve | –
3 | O.O.O.O.O.O.O.O=S(=O)([O-])[O-].[Fe+2] [Iron (II), iron (II) sulphate heptahydrate] | – | – | >1000 | ≦0.24 ppm | +ve | –
4 | O.O.O.O.[Cl][Mn][Cl] [Manganese, manganese (II) chloride tetrahydrate] | – | – | >1000 | ≦0.24 ppm | +ve | –
5 | O=[N+]([O-])[O-].[Ag+] [Silver, silver nitrate] | – | – | 12.5 | 0.097 ppm | +ve | None of the 0.01% silver solutions pH buffered in the range 4.7 to 7.7 were effective against biofilms
6 | copper (II) nitrate trihydrate | – | – | 15.6 | 1.95 ppm | +ve | –
7 | iron (III) sulphate hydrate | – | – | >1000 | ≦0.24 ppm | +ve | –
8 | zinc sulphate heptahydrate | – | – | >1000 | ≦125 ppm | +ve | –
